# Key:
# human MTAP = biological target: T1, human MTAP (Homo sapiens, UniProt Q13126); assay: Inhibition of phosphorolysis of MTA catalysed by human MTAP; assay type: biochemical
# T1 sequence (Q13126 1-283): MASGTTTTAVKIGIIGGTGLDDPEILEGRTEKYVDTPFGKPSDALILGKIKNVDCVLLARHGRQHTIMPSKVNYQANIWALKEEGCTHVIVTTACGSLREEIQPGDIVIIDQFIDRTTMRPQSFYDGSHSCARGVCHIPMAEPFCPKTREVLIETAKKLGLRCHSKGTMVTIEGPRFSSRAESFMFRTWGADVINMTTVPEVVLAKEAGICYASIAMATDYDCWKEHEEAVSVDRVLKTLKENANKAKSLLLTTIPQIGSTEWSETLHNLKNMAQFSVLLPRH
# E. coli MTAN [1] = biological target: T2, E. coli MTAN (Escherichia coli, UniProt P0AF12); assay type: biochemical
# T2 sequence (P0AF12 whole entry): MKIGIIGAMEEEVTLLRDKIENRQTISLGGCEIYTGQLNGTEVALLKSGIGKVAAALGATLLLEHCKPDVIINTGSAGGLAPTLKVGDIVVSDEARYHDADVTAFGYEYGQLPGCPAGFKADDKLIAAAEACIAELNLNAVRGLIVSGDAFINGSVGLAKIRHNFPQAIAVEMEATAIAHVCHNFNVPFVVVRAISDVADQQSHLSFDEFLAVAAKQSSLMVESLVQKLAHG
# N. meningitidis MTAN [2] = biological target: T3, N. meningitidis MTAN (Neisseria meningitidis, UniProt Q9K054); assay: Inhibition of hydrolysis of MTA catalysed by N. meningitidis MTAN; assay type: biochemical
# E. coli MTAN [3] = biological target: T2, E. coli MTAN; conditions: read-out: Ki* E. coli MTAN; Ki* value; cited from earlier work
# N. meningitidis MTAN [4] = biological target: T3, N. meningitidis MTAN; conditions: read-out: Ki* N. men. MTAN; Ki* value; cited from earlier work
molecule,measurement,setting,value
CSCC(CO)CNCc1c[nH]c2c(N)ncnc12 (racemic) [(±)-25],weaker binding affinity compared with 4,human MTAP,approximately 110 fold
same,times weaker inhibitor than 17 I,E. coli MTAN [1]; E. coli MTAN,1.5 fold
same,weaker binding affinity compared with 4,E. coli MTAN [1]; E. coli MTAN,~180 fold
same,difference in binding affinity compared with 4,N. meningitidis MTAN [2]; N. meningitidis MTAN,9 fold
CSC[C@@H](CN(C)Cc1c[nH]c2c(N)ncnc12)[C@@H](O)CO (racemic) [(±)-68],improvement of inhibition relative to (±)-65,human MTAP; N-methylation,about 3 fold
same,loss of binding affinity relative to (±)-65,"E. coli MTAN [1]; E. coli MTAN, N-methylation",250 fold
same,loss in activity relative to (±)-65,"N. meningitidis MTAN [2]; N. meningitidis MTAN, N-methylation",~12 fold
CSC[C@H](O)[C@@H](CO)CN(C)Cc1c[nH]c2c(N)ncnc12 (racemic) [(±)-72],reduction in binding affinity relative to (±)-68,human MTAP,~9 fold
same,gain in binding affinity relative to (±)-68,E. coli MTAN [1]; E. coli MTAN,~6 fold
same,reduction in binding affinity relative to (±)-68,N. meningitidis MTAN [2]; N. meningitidis MTAN,approximately 2 fold
CSC[C@H](O)[C@@H](O)CN(C)Cc1c[nH]c2c(N)ncnc12 (racemic) [(±)-78],loss in activity relative to (±)-72,human MTAP,~4 fold
same,increase in potency relative to (±)-72,E. coli MTAN [1]; bacterial MTANs (E. coli),approximately 2 fold
same,increase in potency relative to (±)-72,N. meningitidis MTAN [2]; bacterial MTANs (N. meningitidis),approximately 2 fold
CSC[C@@H](O)[C@@H](CO)NCc1c[nH]c2c(N)ncnc12 [Compound 33],times weaker inhibitor than 17 I,E. coli MTAN [1]; E. coli MTAN,about 4 fold
CSC[C@@H](O)CNCc1c[nH]c2c(N)ncnc12 [Compound 54],drop in binding affinity relative to (±)-25,E. coli MTAN [1]; E. coli MTAN,~110 fold
CSC[C@H](CO)N[C@H](CO)c1c[nH]c2c(N)ncnc12 [Compound 79],loss of activity relative to 3,"E. coli MTAN [1]; E. coli MTAN, cleavage of 2,3 C-C bond of 3","21,500 fold"
"(1S)-1-(9-deazaadenin-9-yl)-1,4-dideoxy-1,4-imino-5-methylthio-D-ribitol [Compound 3]",Ki,E. coli MTAN [3],0.08 ± 0.02 nM
same,Ki,N. meningitidis MTAN [4],0.36 nM

# From article PMC3438226 (Bioorganic & medicinal chemistry, 2012)
